Two compounds from patent US11066412B2, “Substituted pyrrolo[2,1-a]phthalazines and benzo[g]pyrrolo[2,1-a]phthalazines for the treatment of cancer” (Academia Sinica, priority 2017, dated 2021) can be followed below.

One test concerns H460 lung cancer cells. Briefly: cell cycle distribution by flow cytometry. The class given is cell-based, human. As for the experimental part: We further investigated the effects of BO-2590 on cell cycle progression in H460 lung cancer cells at the concentrations of 0, 0.125, 0.25, 0.5, 1 and 2 μM for 24, 48 and 72 hr. The cell cycle distribution was analyzed by flow cytometry. […] By increasing the concentration of BO-2590, significant arrest at the G2 phase was first observed, which was followed by the arrest of the S phase progression, and finally the G1 arrest appeared at 24 hr. However, following the incubation for 48 or 72 hr, while the cell cycle slowly processed, a significant amount of the sub-G1 cells started to appear (FIG. 6). The sub-G1 cells also represented apoptotic cells.
(In general: Flow cytometry measures light scatter and fluorescence of single cells or particles in a stream.)

The next test has as its system H460 cell lines. The experiment in a line: Annexin V staining assay. The following applies: 0.5, 1 and 2 μM, 48 hr; FIG. 7. The class given is cell-based, human. Here is the method:
In this example, Annexin V staining assay was used to assess BO-2590 induced apoptotic cell death in H460 cell lines. Briefly, H460 cells were treated with BO-2590 at the concentrations of 0.5, 1 and 2 μM for 48 hr and then stained with Annexin V-FITC and propidium iodide. The stained cells were analyzed by flow cytometry.

The test system of a further test is EA.hy926 cells. The experiment in a line: Tube-Formation Assay. The following applies: 24 hr pre-treatment, 48-hr incubation on matrigel; FIG. 4. It is filed as cell-based. As for the experimental part: Angiogenesis is the process of generating new blood vessels derived as extensions from the existing vasculature. Performance of vascular behavior or monitoring tube formation can determine whether the compound is capable of interrupting angiogenesis. In this example, whether the compound of formula (I) interrupted angiogenesis was investigated using Tube-Formation Assay.
Briefly, EA.hy926 cells were treated with various concentrations of BO-2590 for 24 hr. After that, cells (5×10^5 cells/well) were suspended in 100 μl medium containing 1% FCS and subsequently seeded onto 96-well plate pre-coated with matrigel 1 h at 37° C. After a 48-hr incubation, tube-formation ability was examined under a phase microscope.

In another test the test system is SCLC H211 xenografts. Briefly: tumor growth in xenograft-bearing nude mice, combination with cisplatin. The class given is in vivo. The following applies: co-administration of BO-2768 (20 mg/kg, 5 days + 1 day rest, two cycles) and cisplatin (2 or 4 mg/kg every 4 days ×3); FIG. 14, panel A. As for the experimental part:
Athymic nude mice bearing the nu/nu gene were obtained from the National Laboratory Animal Center (Taipei, Taiwan). Male nude mice (6 weeks or older weighing 20-24 g or more) were used for all human tumor xenografts. The tested compounds were intravenously administered through tail vein. Tumor volume was determined by measuring the length x width x height (or width) with calipers. The vehicle used for the tested compounds was normal saline (0.9% NaCl isotonic solution). For tumor-bearing nude mice during the course of the experiment, the % body weight changes refer to: (the total weight on reading day/the total weight on day treatment started)×100.
In this example, the synergistic effect of BO-2768 and cisplatin on the suppression of tumor size and the body weight changes of the test subjects were investigated. To this purpose, an aliquot of H211 cells (5×10^6, 50 μl ) were implanted into nude mice subcutaneously. Then, the test animals were treated with BO-2768 or cisplatin, alone or in combination. BI-2768 (dissolved in 20% Kolliphor® HS 15, 10% Tween 80, 10% PEG400, […], and 40% distilled water) was administered at the dose of 20 mg/kg in […] for 5 consecutive days, then rest for one day; and the cycle was repeated once (i.e., a total of two cycles). Cisplatin was given at the dose of 2 or 4 mg/kg once every 4 days, for 3 times. Results are depicted in FIG. 14.

Another test concerns H211 cells. The experiment in a line: combination with cisplatin, proliferation by PrestoBlue assay. The class given is cell-based. The following applies: co-administration of BO-2768 and cisplatin, ratio 1:2, 1:4 and 1:8; FIG. 9. As for the experimental part: In this example, whether synergistic effect on the suppression of cell proliferation exists between BO-2768 and cisplatin was investigated. To this purpose, H211 cells were treated with BO-2768 or cisplatin, alone or in combination, and proliferation rate of H211 cells was analyzed by PrestoBlue assay. Results are depicted in FIG. 9.

The test system of a further test is H526 cell lines. Briefly: Annexin V staining assay. The following applies: 0.01-0.08 μM, 72-h treatment; FIG. 8. The class given is cell-based. As for the experimental part:
In this example, the effect of BO-2768 was assessed in accordance with procedures of Example 4.7 except apoptotic cell death was determined in H526 cell lines. Briefly, H526 cells were treated with BO-2768 at the concentrations of 0.01, 0.02, 0.04 and 0.08 μM or with cisplatin at the concentrations of 2, 4, 8 and 16 μM for 24, 48 or 72 hrs and then stained with Annexin V-FITC and propidium iodide. The stained cells were analyzed by flow cytometry.

The next test relates to H82. The experiment in a line: in vitro cytotoxicity to SCLC cells. It is filed as cell-based, human. The following applies: Table 3. In a few lines:
(§1)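 SCLC lines exposed to compounds for 72 h, then viability measured by PrestoBlue (1–2 h at 37° C, absorbance 570/600 nm).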

For a further test, the system named is H1417. Briefly: in vitro cytotoxicity to SCLC cells. It is filed as cell-based, human. The following applies: Table 3. In a few lines: as §1
For the next test, the system named is H146. Briefly: in vitro cytotoxicity to SCLC cells. It is filed as cell-based, human. The following applies: Table 3. An outline of the steps: as §1
The subject of a further test is H211. Briefly: in vitro cytotoxicity to SCLC cells. It is filed as cell-based, human. The following applies: Table 3. In a few lines: as §1
The subject of the next test is H526 cells. Briefly: single cell electrophoresis (comet) assay. It is filed as cell-based. The following applies: FIG. 2. An excerpt:
The data is the average of 3 independent experiments.
To this purpose, cells were encapsulating in a low-melting-point agarose suspension on a microscope slide, then were lysed in neutral or alkaline (pH>13) condition, and electrophoresis of the suspended lysed cells. The term “comet” refers to the pattern of DNA migration through the electrophoresis gel, which often resembles a comet, and the intensity of the comet tail relative to the head reflects the number of DNA breaks.

By IC50 is commonly meant the point on the concentration scale where inhibition reaches its midpoint. Lower therefore signals inhibition by little substance.

As to `Cc1c(CO)c(CO)c2c3ccccc3c(N3CCC(N4CCCCC4)CC3)nn12` [BO-2590, (6-([1,4′-Bipiperidin]-1′-yl)-3-methylpyrrolo[2,1-α]phthalazine-1,2-diyl)dimethanol], the cell cycle progression result in the test on H460 lung cancer cells (0.125-2 μM, 24, 48 and 72 hr, FIG. 5) is “dose-dependently interfered with cell cycle progression”. In the test with H460 lung cancer cells (48 or 72 hr, FIG. 6), the “sub-G1 (apoptotic) cells” value is “dose-dependently induced the sub-G1 cells”. Further, the “proportion of Annexin V+ cells” value in the test on H460 cell lines is given as “significantly increased the proportion of Annexin V^+ cells in a dose-dependent manner”. The tube formation entry in the test on EA.hy926 cells was “markedly and dose-dependently abolished tube formation”.

On to `Cc1c(CO)c(CO)c2c3cc4ccccc4cc3c(N(C)C)nn12` [BO-2768, (6-(Dimethylamino)-3-methylbenzo[g]pyrrolo[2,1-α]phthalazine-1,2-diyl)dimethanol], for which the “tumor size, combination effect” value with SCLC H211 xenografts is “synergistic reduction in the tumor size”. For the same compound, the “numbers of proliferated H211 cells, combination effect” value in the test with H211 cells is recorded as “synergistic reduction in the numbers of proliferated H211 cells”. Besides, the “proportion of Annexin V+ cells” value in the test on H526 cell lines was “significantly increased the proportion of Annexin V^+ cells in a dose-dependent manner”. In addition, the IC50 was found to be 310 ± 140 nM in the test on H82, 420 ± 190 nM with H1417, 1170 ± 290 nM with H146 and 170 ± 70 nM with H211. Moreover, the “DNA damage (comet tail)” value in the test with H526 cells was “capable of inducing DNA breaks in a dose dependent manner”.
